# Laboratory results taken from US20130266964A1, “METHOD OF DETECTING ENDOTHELIAL PROGENITOR CELLS” (PURDUE RESEARCH FOUNDATION, priority 2006, published 2013).
# Experiments:
# [1] = molecular target: T1, cell surface folate receptors on folate receptor positive M109 cells (Mus musculus, UniProt P35846); assay: fluorescence measurement of binding to cell surface folate receptors on M109 cells in culture; format: cell-based
# T1 construct: cell surface folate receptors on folate receptor positive M109 cells in culture; endogenous in cells; host or cells: M109 cells
# T1 sequence (P35846 25-232): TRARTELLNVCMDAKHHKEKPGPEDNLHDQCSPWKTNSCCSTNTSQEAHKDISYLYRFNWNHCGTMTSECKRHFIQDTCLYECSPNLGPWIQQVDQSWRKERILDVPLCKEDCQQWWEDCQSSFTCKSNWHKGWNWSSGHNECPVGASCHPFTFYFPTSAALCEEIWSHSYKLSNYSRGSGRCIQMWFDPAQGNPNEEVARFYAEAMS
# Method: AlexaFluor 488 C5-maleimide (Molecular Probes, Eugene, Oreg.) was dissolved in dimethyl sulfoxide (DMSO) (0.5 mg in 50 μl DMSO). A 1.5 molar equivalent (0.57 mg) of Folate-Cys was added to the solution and mixed for 4 hours at room temperature. Folate-Cys-AlexaFluor 488 (Folate-AlexaFluor) was purified by reverse-phase HPLC on a C18 column at a flow rate of 1 ml/min. The mobile phase, consisting of 10 mM NH4HCO3 buffer, pH 7.0 (eluent A) and acetonitrile (eluent B), was maintained at a 99:1 A:B ratio for the first minute and then changed to 1:99 A:B in a linear gradient over the next 29 minutes. Folate-Cys-AlexaFluor 488 eluted at 20 minutes. The product was confirmed by mass spectroscopy and the biologic activity was confirmed by fluorescence measurement of its binding to cell surface folate receptors on folate receptor positive M109 cells in culture.
# Texas Red C2-maleimide (Molecular Probes, Eugene, Oreg.) was dissolved in dimethyl sulfoxide (DMSO) (1 mg in 200 μl DMSO). A 1.4 molar equivalent (1 mg) of Folate-Cys was added to the solution and mixed for 4 hours at room temperature. […] The product was confirmed by mass spectroscopy and the biologic activity was confirmed by fluorescence measurement of its binding to cell surface folate receptors on folate receptor positive M109 cells in culture.
# [2] = tested on: folate receptor on CD133+ Flk1+ endothelial progenitor cells; assay: folate-FITC binding to endothelial progenitor cells quantified by flow cytometry; format: cell-based, BALB/c mice; details: 100 nM folate-FITC
# Method: Female 6- to 8-week-old BALB/c mice were injected in the peritoneal cavity with either Complete Freund's Adjuvant (CFA; 50-100 μL), Pseudomonas aeruginosa (1×10^7 CFU (colony forming units)), or Yersinia enterocolitica (1×10^6 CFU). Cells were isolated from the peritoneal cavity by lavage with 8 mL of sterile phosphate-buffered saline (PBS) 2-4 days later. The cells were pelleted by centrifugation (400×g, 10 minutes at room temperature) and resuspended in folate-deficient RPMI-1640 media (FD-RPMI; Gibco) containing 10% heat-inactivated fetal bovine serum (FBS), penicillin (100 IU/mL) and streptomycin (100 μg/mL). Peritoneal extracted cells were seeded at densities of 1×10^6 cells/microcentrifuge tube for antibody and folate conjugate studies.
# All binding experiments were conducted on ice or in a 4° C. cold room unless indicated otherwise. All antibody labeling was optimized by titration. Optimal labeling was most often achieved with a 1/1000-1/10,000 dilution of the manufacture's stock antibody solution. After cells were labeled with antibodies, the samples were washed twice with PBS to remove non-specific binding. The samples were then incubated with a 100 nM concentration of folate-FITC for 45 minutes. […] All samples were analyzed by flow cytometry using a Becton Dickinson FACS Calibur (BD, Franklin Lakes, N.J.).
biologic activity: binding to cell surface folate receptors [1],SMILES,"binding to CD133+ Flk1+ endothelial progenitor cells ([2]; 45 minutes, on ice or 4° C., absence of unlabeled folic acid)",binding to CD133+ Flk1+ endothelial progenitor cells with competition ([2]; pre-incubation with 100-fold excess of unlabeled folic acid (10 μM))
confirmed,Nc1nc2ncc(CNc3ccc(C(=O)NC(CCC(=O)NC(CSC4CC(=O)N(CCNS(=O)(=O)c5ccc(C6=c7cc8c9c(c7Oc7c6cc6c%10c7CCCN%10CCC6)CCC[N+]=9CCC8)c(S(=O)(=O)O)c5)C4=O)C(=O)O)C(=O)O)cc3)nc2c(=O)[nH]1 (stereo not shown) [Folate-Cys-Texas Red],–,–
confirmed,N=c1ccc2c(-c3ccc(C(=O)NCCCCCN4C(=O)CC(SCC(NC(=O)CCC(NC(=O)c5ccc(NCc6cnc7nc(N)[nH]c(=O)c7n6)cc5)C(=O)O)C(=O)O)C4=O)cc3C(=O)O)c3ccc(N)c(S(=O)(=O)O)c3oc-2c1S(=O)(=O)O (stereo not shown) [Folate-Cys-AlexaFluor 488],–,–
–,Nc1nc2ncc(CNc3ccc(C(=O)NC(CCC(=O)NCCNC(=S)Nc4ccc(C(=O)O)c(-c5c6ccc(=O)cc-6oc6cc(O)ccc56)c4)C(=O)O)cc3)nc2c(=O)[nH]1 (stereo not shown) [folate-FITC],bound,competed
